The test concerns ROS in U87-MG cells. Put plainly: ROS detection by DCF-DA immunofluorescence. As to conditions: Y102 2.2 or 4.5 μM 24 h, S1 20 μM 1 h, vs DMSO. Format: cell-based, human. On the procedure: Damaged mitochondria generate and accumulate reactive oxygen species (ROS), which are damaging to the cell. RAS dysregulated tumors are reported to depend on autophagy in order to remove the damaged mitochondria and allow for their survival (22). […] The ROS detection reagent DCF-DA, which is converted to its fluorescent form DCF upon ROS-mediated oxidation, was used to examine if ROS levels increase with Y102 treatment.
The data for FIG. 5 was obtained as follows: U87-MG cells were plated on poly-D-lysine (Neuvitro Corporation) coated coverslips at a concentration of 50,000 cells/well in a 24-well plate and allowed to adhere overnight. Cells were treated for 24 h with DMSO, 2.2 μM Y102, or 4.5 μM Y102, or for 1 h with 20 μM S1. 30 minutes prior to treatment end, cells were stained with 20 μM 2′, 7′-dichlorofluorescin diacetate (DCFDA, Sigma, green) at 37° C. Following staining, cells were fixed for 10 minutes with 3.7% formaldehyde. After an additional two washes with PBST, cell nuclei were stained with 0.33 μg/mL DAPI (Molecular Probes) for 30 minutes (blue). Coverslips were mounted on glass slides with ProLong Gold antifade medium. Wide-field images were taken with a Zeiss Imager Z1 wide-field microscope using a 40×1.3 NA EC Plan-NEOFLUAR objective and Zeiss Axiovision software. Scale bar, 20 μm.

The structures appear in SMILES notation. Entries after “also recorded” stand apart in the source; their conditions may differ.

Take `Cn1cnnc1S/C=C/C(=O)c1ccc(F)cc1` [Y102]: the “ROS accumulation (DCF-DA)” value is on record as “ROS were found to accumulate; also recorded: accumulation of ROS”.

Values taken from patent US9873705B2, “Vinylogous thioester compounds and methods of use” (THE TRUSTEES OF DARTMOUTH COLLEGE, priority 2015, dated 2018).
